# Results reported in patent publication US5470854A, “2-phenylbenzo[B]furans, process for their manufacture and pharmaceutical preparations containing them” (Schering Aktiengesellschaft, priority 1991, dated 1995).
# What was measured:
# uterus of infantile mice [1] = assay: Uterotrophic test (in-vivo test on infantile mice); conditions: uterus dry weight (mg)/body weight (g) × 100
# Experimental: (§1) The effectiveness of these compounds was found in an in-vivo test on infantile mice. This test is extensively described in Cancer Treatment Reviews 1984, 11, 147, and J. Med. Chem., 1984, 27, 1439.
# (§2) ^a dosage/animal, administered s.c. on three consecutive days in oliv
# (§3) ^b uterus dry weight (mg)/body weight (g) × 100, determined 24
# (§4) hours after the final injection.
# [2] = system: human MCF-7 mamma carcinoma cells; assay: Effect on cell growth of MCF-7 cells; format: cell-based; conditions: for activity at 10 µM / activity at 1 µM / activity at 0.1 µM / activity at 5 µM: Homo sapiens, MCF7, mean of 16 individual results, read-out: T/C (corrected); for activity at 10 µM: 1 × 10^-5 M; for activity at 1 µM: 1 × 10^-6 M; for activity at 0.1 µM: 1 × 10^-7 M; for activity at 5 µM: 5 × 10^-6 M
# oestrogen receptor = biological target: T1, oestrogen receptor (Bos taurus, UniProt P49884); assay: Relative bonding affinity to the oestrogen receptor (competition with 3H-17β-Estradiol); format: binding, calf; conditions: for RBA* (relative bonding affinity to the oestrogen receptor): calves' uteri, in relation to 17β-estradiol = 100
# T1 construct: oestrogen receptor of a calf's uterus; from tissue; host or cells: calf uterus
# T1 sequence (P49884 1-596): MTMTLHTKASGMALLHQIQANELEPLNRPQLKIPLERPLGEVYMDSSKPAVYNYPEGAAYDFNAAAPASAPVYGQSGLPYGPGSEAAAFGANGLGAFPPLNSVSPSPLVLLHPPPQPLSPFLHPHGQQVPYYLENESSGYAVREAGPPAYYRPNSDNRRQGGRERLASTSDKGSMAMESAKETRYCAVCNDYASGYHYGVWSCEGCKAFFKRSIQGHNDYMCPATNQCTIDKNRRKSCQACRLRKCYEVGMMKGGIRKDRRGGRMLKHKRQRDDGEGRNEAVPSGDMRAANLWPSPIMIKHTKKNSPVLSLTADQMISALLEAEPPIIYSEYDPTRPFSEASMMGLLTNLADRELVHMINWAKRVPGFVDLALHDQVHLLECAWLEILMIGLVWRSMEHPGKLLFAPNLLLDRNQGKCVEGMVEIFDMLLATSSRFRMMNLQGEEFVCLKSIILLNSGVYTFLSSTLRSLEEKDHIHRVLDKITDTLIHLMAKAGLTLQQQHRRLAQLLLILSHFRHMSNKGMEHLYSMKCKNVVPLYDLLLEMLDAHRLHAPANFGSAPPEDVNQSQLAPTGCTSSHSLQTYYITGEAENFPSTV
# Text: The test methodology is described in Cancer Treatment Reviews 1984, 11, 147.
# *Relative bonding affinities to the oestrogen receptor of calves' uteri,
# in relation to 17β-estradiol = 100
# uterus of infantile mice [3] = assay: Anti-uterotrophic test (in-vivo test on infantile mice); conditions: simultaneous 0.4 μg oestron/animal/day; for anti-uterotrophic test, effect: uterus dry weight (mg)/body weight (g) × 100
# Experimental: as §1, §2, §3, §4
# ^c simultaneous administration of 0.4 μg oestron/animal/day.
# [4] = 1 μg/animal s.c. on three consecutive days
# [5] = 5 μg/animal s.c. on three consecutive days
# [6] = 25 μg/animal s.c. on three consecutive days
# [7] = 125 μg/animal s.c. on three consecutive days
Structure (SMILES),RBA* (relative bonding affinity to the oestrogen receptor) (oestrogen receptor),"uterotrophic test, effect (uterus of infantile mice [1]; [4]) [mg/g × 100]","uterotrophic test, effect (uterus of infantile mice [1]; [5]) [mg/g × 100]","uterotrophic test, effect (uterus of infantile mice [1]; [6]) [mg/g × 100]","uterotrophic test, effect (uterus of infantile mice [1]; [7]) [mg/g × 100]","effect on the growth of MCF-7 / hormone-dependent tumour cells, in words [2]",activity at 10 µM [2] [%],activity at 1 µM [2] [%],activity at 0.1 µM [2] [%],activity at 5 µM [2] [%],"affinity to the oestrogen (estradiol) receptor, in words (oestrogen receptor)","anti-uterotrophic test, inhibition (uterus of infantile mice [3]; 5 μg/animal s.c.) [%]","anti-uterotrophic test, inhibition (uterus of infantile mice [3]; 125 μg/animal s.c.) [%]","anti-uterotrophic test, effect (uterus of infantile mice [3]; 5 μg/animal s.c.) [mg/g × 100]","anti-uterotrophic test, effect (uterus of infantile mice [3]; 25 μg/animal s.c.) [mg/g × 100]","anti-uterotrophic test, effect (uterus of infantile mice [3]; 125 μg/animal s.c.) [mg/g × 100]","anti-uterotrophic test, inhibition (uterus of infantile mice [3]; 25 μg/animal s.c.) [%]",other results
"CCc1c(-c2ccc(O)cc2)sc2ccc(O)cc12 [Compound 104a, 3-ethyl-5-hydroxy-2-(4-hydroxyphenyl)benzo[b]thiophen]","59,6",30.3 ± 7.7,38.5 ± 5.4,44.2 ± 6.6,19.6 ± 5.2,strongly inhibiting effect,3.2 ± 3.2,59.1 ± 15.9,61.2 ± 22.1,2.4 ± 3.9,greatest affinity in relation to estradiol,27,30,37.0 ± 3.4,44.1 ± 6.7,36.3 ± 4.0,–,"uterotrophic test, effect (uterus of infantile mice [1]; 0.2 μg/animal s.c. on three consecutive days, 24 hours after final injection): 27.6 ± 3.8 mg/g × 100; anti-uterotrophic test, inhibition (uterus of infantile mice [3]; 1 μg/animal s.c.): 32%; anti-uterotrophic test, effect (uterus of infantile mice [3]; 0.2 μg/animal s.c.): 49.8 ± 1.4 mg/g × 100; anti-uterotrophic test, effect (uterus of infantile mice [3]; 1 μg/animal s.c.): 35.3 ± 7.3 mg/g × 100"
"CCCc1c(-c2ccc(O)cc2)sc2ccc(O)cc12 [Compound 106a, 5-hydroxy-2-(4-hydroxyphenyl)-3-propylbenzo[b]thiophen]","21,9",25.4 ± 6.2,32.7 ± 5.0,35.3 ± 7.5,51.2 ± 9.9,strongly inhibiting effect,0.3 ± 3.5,35 ± 10.4,77.1 ± 21.4,2.3 ± 4.1,greatest affinity in relation to estradiol,27,–,34.4 ± 7.1,48.0 ± 4.2,48.8 ± 4.1,–,–

# Continued, in another order:
RBA* (relative bonding affinity to the oestrogen receptor) (oestrogen receptor),Structure (SMILES),"uterotrophic test, effect (uterus of infantile mice [1]; [4]) [mg/g × 100]","uterotrophic test, effect (uterus of infantile mice [1]; [5]) [mg/g × 100]","uterotrophic test, effect (uterus of infantile mice [1]; [6]) [mg/g × 100]","uterotrophic test, effect (uterus of infantile mice [1]; [7]) [mg/g × 100]","effect on the growth of MCF-7 / hormone-dependent tumour cells, in words [2]",activity at 10 µM [2] [%],activity at 1 µM [2] [%],activity at 0.1 µM [2] [%],activity at 5 µM [2] [%],"affinity to the oestrogen (estradiol) receptor, in words (oestrogen receptor)","anti-uterotrophic test, inhibition (uterus of infantile mice [3]; 5 μg/animal s.c.) [%]","anti-uterotrophic test, inhibition (uterus of infantile mice [3]; 125 μg/animal s.c.) [%]","anti-uterotrophic test, effect (uterus of infantile mice [3]; 5 μg/animal s.c.) [mg/g × 100]","anti-uterotrophic test, effect (uterus of infantile mice [3]; 25 μg/animal s.c.) [mg/g × 100]","anti-uterotrophic test, effect (uterus of infantile mice [3]; 125 μg/animal s.c.) [mg/g × 100]","anti-uterotrophic test, inhibition (uterus of infantile mice [3]; 25 μg/animal s.c.) [%]",other results
"27,6","CCc1c(-c2ccc(O)cc2)sc2cc(O)ccc12 [Compound 104b, 3-ethyl-6-hydroxy-2-(4-hydroxyphenyl)benzo[b]thiophen]",18.0 ± 4.0,22.7 ± 5.9,29.3 ± 4.5,39.9 ± 6.1,strongly inhibiting effect,4.2 ± 6,91.9 ± 21.2,94 ± 21.2,5.7 ± 5.8,greatest affinity in relation to estradiol,32,31,37.9 ± 6.9,37.3 ± 4.2,38.0 ± 5.4,33,–
"25,1","CCCc1c(-c2ccc(O)cc2)sc2cc(O)ccc12 [Compound 106b, 6-hydroxy-2-(4-hydroxyphenyl)-3-propylbenzo[b]thiophen]",16.6 ± 4.6,22.4 ± 3.1,24.5 ± 4.8,35.1 ± 4.9,strongly inhibiting effect,1.8 ± 3.1,69 ± 15.1,81.7 ± 17.5,3.6 ± 3,greatest affinity in relation to estradiol,34,40,37.0 ± 6.5,35.3 ± 6.7,34.8 ± 6.2,39,–
"7,1","Oc1ccc(-c2sc3cc(O)ccc3c2CCCCCCN2CCCCC2)cc1 [Compound 119b, 6-hydroxy-2-(4-hydroxyphenyl)-3-(6-N-piperidinylhexyl)benzo[b]thiophen]",19.8 ± 3.1,20.7 ± 5.0,19.4 ± 2.1,34.2 ± 9.5,strongly inhibiting effect,-13.5 ± 3.2,48.1 ± 12.4,18.8 ± 7.2,2 ± 3.6,–,73,61,26.1 ± 5.4,22.8 ± 2.6,30.0 ± 5.6,65,–
